Several values for one entry are separate records, joined by “and”; a condition that tells them apart may be missing. Equal entries are not always repeated. Entries after “also recorded” stand apart in the source; their conditions may differ. No end group written: not given here. *: point of attachment. Myristoyl = CCCCCCCCCCCCCC(=O)*
Legend:
[1] = system: collagen-induced arthritis (CIA) in Wistar rats; experiment: Collagen-induced arthritis (CIA) induced by bovine CII, treated by subcutaneous peptide injection; assay type: in vivo; settings: for suppression / alleviation of arthritis in rats: CIA rats, result in words
Protocol: In the animal experiment protocol of the present invention, collagen-induced arthritis (CIA) in Wistar rats was induced by bovine CII. The non-T cell binding peptides of the present invention were used to treat the arthritis rats.
The experimental arthritis model used in the present invention is collagen-induced arthritis (CIA) which is recognized internationally. The experimental animals used were American Wistar rats, which belong to a blocking colony. They were cultured successfully by Wistar Institute of USA in 1907. They are among the species that were introduced into our country earliest and were used most widely. The rats used in this experiment were all cultured in the animal center of People's Hospital, Peking University (SPF degree II). The rats were cultured in the polyacylene cages cushioned by serrago. The lightness/darkness cycle was maintained as 12 h/12 h. The water and food were freely available to the rats. All the rats used in the experiment were male, 8-10 weeks of age, body weight 180±10 g. All the protocols related to animals in the experiment were in accordance with Chinese Experimental Animal Regulations.
The bovine type II collagen (catalogue number: C11188) was bought from Sigma Co. Ltd. It was dissolved in acetic acid to make a solution with the final concentration of 8 mg/ml. Then the solution was emulsified with complete Freund's adjuvant (Detroit, USA) of the equal volume. 100 μl of the emulsified solution was injected into the footpad of the right limb of each Wistar rat. The injection dose was […]. Thus the arthritis model of Wistar rats was successfully established.
The swelling of metatarsophalangeal joints and interphalangeal joints was found on all the rats about 15 days after the induction of arthritis in Wistar rats with CII. A 0-16 scale was used to evaluate the extent of arthritis. Each of the 4 paws was assigned a score using a 0-4 scale, wherein zero=no joint swelling, 1=swelling of one joint, 2=swelling of 2 joints, 3=swelling of 3 joints, and 4=swelling of 4 joints, which is the swelling of the whole paw. Four paws were scored respectively, and these scores were summed up to give a total score. Beginning 2 days after the immunization, the rats were subjected to an inspection every day until the experiment had been finished.
(§1) The arthritis rats were randomly divided into 4 groups from Day 4 to Day 7 after arthritis induced therein. There were 3 treatment groups and one control group. Each group consisted of 10 rats. Non-T cell binding peptide 267A was subcutaneously injected into the base of tail of each rat every 3 days. The peptides were dissolved in sterile distilled water before injection. The concentrations used in the 3 treatment groups were 100 μg/ml, 500 μg/ml and 1000 μg/ml respectively, 100 μl for each rat, and the control group received sterile distilled water only. The volume change of right feet was measured by water-expelling method every day. Using the aforementioned method of arthritis evaluation, the arthritis scores were given every day based on the number of joints with arthritis. The rats were killed 18 days after treatment. The peripheral blood was collected. The serum concentrations of the respective cytokines were detected using ELISA kits of TNFα and IL-2 (JingMei Biotech Co. Ltd, ShenZhen, P.R.C). In the meanwhile, the joints of the right limb were detached, fixed, decalcified, sectioned and subjected to HE staining.

[2] = system: TNFα; experiment: TNFα concentration in peripheral blood of CIA rats (ELISA); assay type: in vivo, Wistar rats
Protocol: as §1

[3] = system: T cell activation (L57.23 cell with 3.19 cell; Priess cell with 3838 cell); experiment: T cell activation assay: antigen presenting cells, peptide and T cell clones co-incubated; IL-2 in supernatant read by CTLL proliferation (MTT); assay type: cell-based; settings: for inhibition of the T cell activation effects of wild type DRβ1 binding peptide: co-incubated with wild type peptide and T cell activation system, concentration dependent, FIG. 4
[4] = system: collagen-induced arthritis (CIA) in Wistar rats; experiment: Collagen-induced arthritis (CIA) induced by bovine CII, treated by subcutaneous peptide injection; assay type: in vivo; settings: for number of swollen joints, Average: * significantly reduced compared with the control group (p < 0.01), control 6.2
[5] = system: T cell activation (L57.23 cell with 3.19 cell; Priess cell with 3838 cell); experiment: T cell activation assay: antigen presenting cells, peptide and T cell clones co-incubated; IL-2 in supernatant read by CTLL proliferation (MTT); assay type: cell-based; settings: FIG. 3; for effect (stimulation) on T cell activation compared with wild type CII peptide: peptide alone with antigen presenting cells and T cells, 48 hours
Source text: Antigen polypeptides are expressed through antigen presenting cells and activate T cells, resulting in the production of inflammation factors in vivo, and further resulting in the typical pathologic changes of rheumatoid arthritis. In the experiment, the inhibition effects of non-T cell binding peptides on T cell activation were detected by measuring T cell proliferation and Interleukin (IL)-2 level. Two sets of systems of antigen presenting and T cell activation, which are recognized internationally, are used in the research.
Wherein one set of antigen presenting and T cell activation system is composed of L57.23 cell and 3.19 cell, and the other set of system is composed of Priess cell and 3838 cell. By comparing the difference in the effects of said seven non-T cell binding peptides on antigen presenting and T cell activation, non-T cell binding peptides which have significant inhibition effect(s) on T cell activation were screened.
Firstly, the antigen presenting cells, different non-T cell binding peptides (10 μg/ml) and corresponding T cells were added into the reaction system and co-incubated at 37° C. for 48 hours. The supernatant was obtained and added into well-grown IL-2 dependent cells (CTLL). The CTLL cell proliferation was detected by using titrazolium salt method (MTT). Thus the inhibition effects of non-T cell binding peptides on T cell activation were determined.

[6] = 50 mg group, right hind foot, individual rats
[7] = Day 8, 10, 12 and 14, three treatment groups 100, 500, 1000 μg/ml, 100 μl s.c. every 3 days
[8] = 10 mg group, right hind foot, individual rats

With “FKGEAGPKGE (Myristoyl-FKGEAGPKGE) [267A, amino-terminal linked to myristic acid]” the “number of swollen joints” value [1, 6] was 4 (2×) and 6 (2×) and 2 and 1 (3×) and 3 (2×), the “swelling of the right feet” value ([1]; 3 treatment groups, within the first 2 weeks after treatment) was “alleviated” and the “difference among the 3 treatment groups in right foot swelling ratios and arthritis scores” value ([1]; 100, 500 and 1000 μg/ml groups, Day 8, 10, 12 and 14) was “no significant difference”. The “suppression / alleviation of arthritis in rats” value [1] was “significant effects; also recorded: significantly suppress arthritis in rats and alleviate the swelling of joints, and shorten the disease course; also recorded: significantly alleviated”, the “arthritis score vs control group” value [1, 7] was “significantly lower” and the “swelling ratio of right feet vs control group” value [1, 7] was “significantly lower”. For the same substance, the “remission ratio of CIA vs control group” value ([1]; three treatment groups, Day 8 and Day 16 after treatment, p<0.05) was “remission ratio(s) of CIA in the control group are significantly lower than that in the three treatment groups; also recorded: significantly higher”, the “concentration of TNFα in peripheral blood vs control group” value ([2]; 100 μg/ml treated group, p<0.05, FIG. 7) was “significantly lower” and the “concentration of TNFα in peripheral blood vs control group” value ([2]; the other two treatment groups (500 and 1000 μg/ml)) was “No significant variety”. The “inhibition of the T cell activation effects of wild type DRβ1 binding peptide” value [3] was “significant effects”, the “number of swollen joints, Average” value ([4]; 10 mg group average) was 3.15* and the Hind foot volume [4, 8] was 1.2 ml (2×) and 1.5 ml and 1.4 ml and 1.3 ml (5×) and 1.1 ml. For the same substance, the “number of swollen joints” value [4, 8] was 2 (2×) and 4 (3×) and 3 (2×) and 1 (2×) and 6, the “number of swollen joints, Average” value ([4]; 50 mg group average) was 3.25* and the Hind foot volume [4, 6] was 1.4 ml (5×) and 1.7 ml and 1.3 ml and 1.1 ml and 1.6 ml (2×).
“FKGEGAGAGE (Myristoyl-FKGEGAGAGE) [Mut 267-270, amino-terminal linked to myristic acid]” was tested, and the “effect (stimulation) on T cell activation compared with wild type CII peptide” value (“effect … compared with wild type CII peptide” below) [5] was “none of polypeptides Mut 267-270, Mut 268-270, Mut 269-270, 269A and 270A has significant effect on T cell activation”, the “suppression / alleviation of arthritis in rats” value [1] was “significant effects” and the “inhibition of the T cell activation effects of wild type DRβ1 binding peptide” value [3] was “significant effects”.
With “FKGEQAGAGE (Myristoyl-FKGEQAGAGE) [Mut 268-270, amino-terminal linked to myristic acid]” the “effect … compared with wild type CII peptide” value [5] was “none of polypeptides Mut 267-270, Mut 268-270, Mut 269-270, 269A and 270A has significant effect on T cell activation”.
With “FKGEQGAAGE (Myristoyl-FKGEQGAAGE) [Mut 269-270, amino-terminal linked to myristic acid]” the “effect … compared with wild type CII peptide” value [5] was “none of polypeptides Mut 267-270, Mut 268-270, Mut 269-270, 269A and 270A has significant effect on T cell activation”.
“FKGEQGAKGE (Myristoyl-FKGEQGAKGE) [269A, amino-terminal linked to myristic acid]” was tested, and the “effect … compared with wild type CII peptide” value [5] was “none of polypeptides Mut 267-270, Mut 268-270, Mut 269-270, 269A and 270A has significant effect on T cell activation”.
For “FKGEQGPAGE (Myristoyl-FKGEQGPAGE) [270A, amino-terminal linked to myristic acid]”, the “effect … compared with wild type CII peptide” value [5] was “none of polypeptides Mut 267-270, Mut 268-270, Mut 269-270, 269A and 270A has significant effect on T cell activation”.
With “wild type DRβ1 binding peptide: wild type CII263-272 polypeptide (F K G E Q G P K G E), contains the antigen epitope of Collagen type II (FKGEQGPKGE) [reference compound]” the “concentration of IL-2 in the supernatant” value ([5]; non-T cell binding peptides compared with wild type peptide, p<0.01) was “high concentration of IL-2” and the “stimulation of T cell proliferation” value ([3]; at 400, 200, 80, 40 and 20 μg/ml) was “able to stimulate T cell proliferation”.
